Consider 20 compounds from ChEMBL document CHEMBL3991601, “The target landscape of clinical kinase drugs” (Science, 2017).

In assay [1] the target is T1, Phosphorylase b kinase gamma catalytic chain, liver/testis isoform (Homo sapiens, UniProt P15735).
T1 sequence (P15735 whole entry): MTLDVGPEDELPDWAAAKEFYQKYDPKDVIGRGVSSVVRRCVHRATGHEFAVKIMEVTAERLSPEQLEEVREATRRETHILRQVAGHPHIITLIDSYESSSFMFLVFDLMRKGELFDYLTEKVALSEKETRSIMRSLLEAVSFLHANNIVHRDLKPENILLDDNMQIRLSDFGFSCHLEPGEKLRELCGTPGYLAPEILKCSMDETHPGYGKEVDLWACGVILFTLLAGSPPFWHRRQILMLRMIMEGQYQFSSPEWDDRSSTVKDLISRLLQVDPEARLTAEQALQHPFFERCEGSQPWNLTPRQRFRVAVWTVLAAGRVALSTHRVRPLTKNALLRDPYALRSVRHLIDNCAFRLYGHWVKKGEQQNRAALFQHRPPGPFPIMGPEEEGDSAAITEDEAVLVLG

In assay [2] the target is U5 small nuclear ribonucleoprotein 200 kDa helicase (Homo sapiens, UniProt O75643).
In assay [3] the target is T2, Breakpoint cluster region protein (Homo sapiens, UniProt P11274).
T2 sequence (P11274 whole entry): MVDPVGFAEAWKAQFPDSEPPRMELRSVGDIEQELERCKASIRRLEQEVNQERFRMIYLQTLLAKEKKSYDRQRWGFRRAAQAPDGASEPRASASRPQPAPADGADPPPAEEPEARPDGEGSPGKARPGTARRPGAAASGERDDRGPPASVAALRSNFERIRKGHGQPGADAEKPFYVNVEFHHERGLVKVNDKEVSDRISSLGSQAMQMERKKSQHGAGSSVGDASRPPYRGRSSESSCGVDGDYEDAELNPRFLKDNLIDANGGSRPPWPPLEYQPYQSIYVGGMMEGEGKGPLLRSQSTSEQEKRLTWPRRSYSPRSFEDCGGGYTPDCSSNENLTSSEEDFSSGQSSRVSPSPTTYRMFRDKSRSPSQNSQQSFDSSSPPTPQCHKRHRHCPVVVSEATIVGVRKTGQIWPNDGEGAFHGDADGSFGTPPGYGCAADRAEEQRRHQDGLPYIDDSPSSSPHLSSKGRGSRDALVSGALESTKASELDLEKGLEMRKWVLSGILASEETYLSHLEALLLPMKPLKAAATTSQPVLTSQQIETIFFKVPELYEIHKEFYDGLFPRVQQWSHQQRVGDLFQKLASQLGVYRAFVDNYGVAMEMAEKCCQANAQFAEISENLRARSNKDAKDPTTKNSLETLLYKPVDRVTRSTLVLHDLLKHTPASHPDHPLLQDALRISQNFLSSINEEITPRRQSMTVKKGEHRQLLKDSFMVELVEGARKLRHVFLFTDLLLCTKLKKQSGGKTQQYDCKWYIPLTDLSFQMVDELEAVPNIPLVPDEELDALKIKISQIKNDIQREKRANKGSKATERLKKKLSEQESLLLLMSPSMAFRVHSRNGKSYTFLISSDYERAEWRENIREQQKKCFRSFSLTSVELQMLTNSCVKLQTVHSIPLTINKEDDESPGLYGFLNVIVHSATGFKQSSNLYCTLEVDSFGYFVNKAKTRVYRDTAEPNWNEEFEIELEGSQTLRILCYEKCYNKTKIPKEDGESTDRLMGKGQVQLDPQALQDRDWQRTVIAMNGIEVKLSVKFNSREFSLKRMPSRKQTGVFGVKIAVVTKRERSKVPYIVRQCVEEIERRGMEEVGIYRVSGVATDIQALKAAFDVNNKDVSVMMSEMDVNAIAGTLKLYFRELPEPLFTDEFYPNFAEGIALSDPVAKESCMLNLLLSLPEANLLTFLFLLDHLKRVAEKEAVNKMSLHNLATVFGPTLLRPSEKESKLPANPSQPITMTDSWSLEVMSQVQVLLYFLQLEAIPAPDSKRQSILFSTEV

In assay [4] the target is T3, Succinate--CoA ligase [ADP-forming] subunit beta, mitochondrial (Homo sapiens, UniProt Q9P2R7).
T3 sequence (Q9P2R7 whole entry): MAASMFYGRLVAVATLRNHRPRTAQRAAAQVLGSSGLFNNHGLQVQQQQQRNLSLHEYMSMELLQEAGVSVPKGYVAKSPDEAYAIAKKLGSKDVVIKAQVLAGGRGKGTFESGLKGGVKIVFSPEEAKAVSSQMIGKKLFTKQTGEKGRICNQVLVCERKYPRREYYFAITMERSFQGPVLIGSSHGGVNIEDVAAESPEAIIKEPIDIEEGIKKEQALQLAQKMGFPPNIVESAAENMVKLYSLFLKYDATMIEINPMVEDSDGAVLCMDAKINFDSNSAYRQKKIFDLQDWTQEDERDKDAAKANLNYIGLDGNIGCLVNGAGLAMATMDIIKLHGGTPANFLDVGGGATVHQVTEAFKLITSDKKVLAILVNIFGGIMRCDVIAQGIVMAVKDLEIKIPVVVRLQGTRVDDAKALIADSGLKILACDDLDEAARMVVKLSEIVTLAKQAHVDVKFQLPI

Assay [5] has as its target Myosin light chain kinase, smooth muscle (Homo sapiens, UniProt Q15746).
The target of assay [6] is Tyrosine-protein kinase ABL1 (Homo sapiens, UniProt P00519).
Assay [7] concerns the target Tyrosine-protein kinase BTK (Homo sapiens, UniProt Q06187).

Each structure is given as a SMILES string. Activity calls are given as the source filed them. Rule as the data show it, for most assays here: actives have a measured Kd and inactives only a lower limit.
Also: in the data inactive means no Kd found up to 30 µM.

U5 small nuclear ribonucleoprotein 200 kDa helicase, sequence (O75643 whole entry): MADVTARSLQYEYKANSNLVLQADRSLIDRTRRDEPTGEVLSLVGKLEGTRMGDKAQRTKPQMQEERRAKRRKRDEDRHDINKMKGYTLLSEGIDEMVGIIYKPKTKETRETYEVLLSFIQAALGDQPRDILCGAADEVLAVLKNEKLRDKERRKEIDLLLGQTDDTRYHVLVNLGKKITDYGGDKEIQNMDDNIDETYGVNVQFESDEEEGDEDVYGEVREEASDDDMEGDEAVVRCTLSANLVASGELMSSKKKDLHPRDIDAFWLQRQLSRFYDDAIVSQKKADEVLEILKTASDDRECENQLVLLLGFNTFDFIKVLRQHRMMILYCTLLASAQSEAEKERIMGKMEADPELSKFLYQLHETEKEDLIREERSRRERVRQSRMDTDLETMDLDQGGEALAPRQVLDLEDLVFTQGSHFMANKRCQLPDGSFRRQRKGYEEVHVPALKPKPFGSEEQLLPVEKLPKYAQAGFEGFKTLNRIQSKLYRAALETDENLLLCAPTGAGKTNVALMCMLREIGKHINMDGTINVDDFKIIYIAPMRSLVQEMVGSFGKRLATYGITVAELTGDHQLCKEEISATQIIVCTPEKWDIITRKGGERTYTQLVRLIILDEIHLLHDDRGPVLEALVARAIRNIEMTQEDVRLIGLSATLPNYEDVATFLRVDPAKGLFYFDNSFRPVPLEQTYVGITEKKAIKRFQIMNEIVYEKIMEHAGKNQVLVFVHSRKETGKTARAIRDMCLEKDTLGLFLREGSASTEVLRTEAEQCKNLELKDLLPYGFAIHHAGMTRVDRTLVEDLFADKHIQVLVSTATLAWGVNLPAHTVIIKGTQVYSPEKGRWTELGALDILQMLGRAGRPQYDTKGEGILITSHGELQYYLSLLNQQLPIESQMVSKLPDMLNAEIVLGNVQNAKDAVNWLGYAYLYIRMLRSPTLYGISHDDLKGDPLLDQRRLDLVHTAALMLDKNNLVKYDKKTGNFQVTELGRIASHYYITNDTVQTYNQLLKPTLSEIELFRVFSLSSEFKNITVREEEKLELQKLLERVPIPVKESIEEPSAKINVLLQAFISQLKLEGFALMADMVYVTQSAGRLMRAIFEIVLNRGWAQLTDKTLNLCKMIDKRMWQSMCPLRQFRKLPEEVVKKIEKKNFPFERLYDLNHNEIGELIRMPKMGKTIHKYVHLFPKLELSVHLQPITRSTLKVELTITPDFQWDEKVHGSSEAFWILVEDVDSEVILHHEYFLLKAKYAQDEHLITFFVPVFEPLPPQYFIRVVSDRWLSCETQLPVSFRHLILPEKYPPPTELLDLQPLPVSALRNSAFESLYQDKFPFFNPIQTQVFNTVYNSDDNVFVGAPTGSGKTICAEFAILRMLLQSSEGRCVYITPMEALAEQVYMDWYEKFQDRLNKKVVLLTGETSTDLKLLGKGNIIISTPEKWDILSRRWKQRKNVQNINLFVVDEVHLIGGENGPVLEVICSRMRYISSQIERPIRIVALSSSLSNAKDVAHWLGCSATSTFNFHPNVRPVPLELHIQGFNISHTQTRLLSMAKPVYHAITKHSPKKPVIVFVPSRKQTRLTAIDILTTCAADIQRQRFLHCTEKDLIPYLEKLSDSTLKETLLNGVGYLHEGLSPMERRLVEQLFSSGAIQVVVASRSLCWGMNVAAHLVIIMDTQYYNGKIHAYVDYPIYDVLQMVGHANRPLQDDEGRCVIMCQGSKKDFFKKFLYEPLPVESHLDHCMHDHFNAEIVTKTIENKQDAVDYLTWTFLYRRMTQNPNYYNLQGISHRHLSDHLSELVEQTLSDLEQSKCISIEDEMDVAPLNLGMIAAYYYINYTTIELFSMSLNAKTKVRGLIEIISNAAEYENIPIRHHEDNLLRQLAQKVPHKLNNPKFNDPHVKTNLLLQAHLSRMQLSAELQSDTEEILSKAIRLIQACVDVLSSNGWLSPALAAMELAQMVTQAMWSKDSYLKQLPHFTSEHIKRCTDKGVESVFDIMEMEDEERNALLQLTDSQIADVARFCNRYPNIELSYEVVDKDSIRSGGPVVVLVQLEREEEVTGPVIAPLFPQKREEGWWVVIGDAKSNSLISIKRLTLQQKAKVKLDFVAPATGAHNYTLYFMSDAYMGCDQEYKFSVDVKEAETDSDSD
Tyrosine-protein kinase ABL1, sequence (P00519 whole entry): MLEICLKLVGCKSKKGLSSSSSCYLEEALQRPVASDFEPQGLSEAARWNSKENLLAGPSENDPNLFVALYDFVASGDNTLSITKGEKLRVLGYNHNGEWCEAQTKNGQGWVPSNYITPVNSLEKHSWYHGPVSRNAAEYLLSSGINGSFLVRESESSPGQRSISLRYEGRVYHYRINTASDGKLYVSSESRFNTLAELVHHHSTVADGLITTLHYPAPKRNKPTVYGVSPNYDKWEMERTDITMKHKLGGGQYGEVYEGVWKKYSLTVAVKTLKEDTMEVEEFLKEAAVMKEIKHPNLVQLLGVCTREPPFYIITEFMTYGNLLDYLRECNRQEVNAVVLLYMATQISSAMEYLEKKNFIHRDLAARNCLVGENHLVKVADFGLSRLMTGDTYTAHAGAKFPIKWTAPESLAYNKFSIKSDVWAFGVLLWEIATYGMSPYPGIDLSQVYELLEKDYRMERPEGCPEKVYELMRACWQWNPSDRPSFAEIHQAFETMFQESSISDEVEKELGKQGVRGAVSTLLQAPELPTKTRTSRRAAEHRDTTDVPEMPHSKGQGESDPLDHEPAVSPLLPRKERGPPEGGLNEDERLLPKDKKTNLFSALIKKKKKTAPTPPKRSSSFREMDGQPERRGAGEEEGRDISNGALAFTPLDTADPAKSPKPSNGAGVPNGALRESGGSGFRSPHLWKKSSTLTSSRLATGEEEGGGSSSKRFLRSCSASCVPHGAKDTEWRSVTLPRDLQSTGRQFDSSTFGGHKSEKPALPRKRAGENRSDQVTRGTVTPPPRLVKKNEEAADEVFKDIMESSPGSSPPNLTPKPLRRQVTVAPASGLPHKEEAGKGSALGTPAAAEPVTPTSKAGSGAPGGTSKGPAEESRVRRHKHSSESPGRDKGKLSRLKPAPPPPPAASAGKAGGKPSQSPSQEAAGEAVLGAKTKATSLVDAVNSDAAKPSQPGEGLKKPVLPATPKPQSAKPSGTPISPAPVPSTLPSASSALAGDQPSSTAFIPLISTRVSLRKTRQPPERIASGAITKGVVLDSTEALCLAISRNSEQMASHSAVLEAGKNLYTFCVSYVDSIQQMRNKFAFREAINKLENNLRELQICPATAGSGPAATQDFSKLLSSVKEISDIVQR
Tyrosine-protein kinase BTK, sequence (Q06187 whole entry): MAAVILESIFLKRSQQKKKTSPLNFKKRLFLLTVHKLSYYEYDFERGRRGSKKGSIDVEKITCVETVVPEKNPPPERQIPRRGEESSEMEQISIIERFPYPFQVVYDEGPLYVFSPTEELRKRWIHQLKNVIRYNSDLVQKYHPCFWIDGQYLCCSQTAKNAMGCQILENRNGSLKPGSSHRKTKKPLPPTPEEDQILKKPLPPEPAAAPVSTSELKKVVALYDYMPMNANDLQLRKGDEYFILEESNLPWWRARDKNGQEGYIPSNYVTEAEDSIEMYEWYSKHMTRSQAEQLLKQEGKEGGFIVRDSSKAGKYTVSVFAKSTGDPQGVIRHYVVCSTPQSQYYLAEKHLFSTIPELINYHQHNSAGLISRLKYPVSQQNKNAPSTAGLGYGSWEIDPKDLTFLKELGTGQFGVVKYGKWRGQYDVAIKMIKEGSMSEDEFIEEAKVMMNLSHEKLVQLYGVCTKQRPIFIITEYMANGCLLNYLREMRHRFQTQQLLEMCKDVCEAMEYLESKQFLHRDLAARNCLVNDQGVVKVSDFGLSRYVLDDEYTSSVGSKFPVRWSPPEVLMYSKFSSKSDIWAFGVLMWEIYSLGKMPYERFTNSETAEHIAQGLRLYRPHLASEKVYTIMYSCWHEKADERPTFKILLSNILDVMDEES

As for `COc1cc2nccc(Oc3ccc(NC(=O)NC4CC4)c(Cl)c3)c2cc1C(N)=O` [LENVATINIB], the Kd is > 30 µM (inactive) in assay [1]; > 30 µM (inactive) in assay [2]; 4.11 µM (active) in assay [3]; > 30 µM (inactive) in assay [4]; > 30 µM (inactive) in assay [5].
As for `CO[C@H]1C[C@@H]2CC[C@@H](C)[C@@](O)(O2)C(=O)C(=O)N2CCCC[C@H]2C(=O)O[C@H]([C@H](C)C[C@@H]2CC[C@@H](OCCO)[C@H](OC)C2)CC(=O)[C@H](C)/C=C(\C)[C@@H](O)[C@@H](OC)C(=O)[C@H](C)C[C@H](C)/C=C/C=C/C=C/1C` [EVEROLIMUS], the Kd in assay [1], in assay [6], in assay [2], in assay [7], in assay [3] and in assay [4] was > 30 µM (inactive) each time. Further, the Kd in assay [5] was > 30 µM (inactive).
As for `Cc1ccc(NC(=O)c2ccc(CN3CC[C@H](N(C)C)C3)c(C(F)(F)F)c2)cc1Nc1nccc(-c2cncnc2)n1` [BAFETINIB], the Kd in assay [1] was > 30 µM (inactive); in assay [6], 0.026 µM (active); in assay [2] it was > 30 µM (inactive); in assay [7] it was > 30 µM (inactive); in assay [3], 0.015 µM (active); in assay [4], > 30 µM (inactive). Moreover, the dissociation constant (Kd) in assay [5] turned out to be 1.21 µM.
In the case of `O=C(Nc1cccc(Cl)c1)Nc1ncc(CCNc2ncnc3ccsc23)s1` [SNS-314], the Kd in assay [2], in assay [3], in assay [4] and in assay [5] was > 30 µM (inactive) throughout.
As for `Cc1cn(-c2cc(NC(=O)c3ccc(C)c(Nc4nccc(-c5cccnc5)n4)c3)cc(C(F)(F)F)c2)cn1` [NILOTINIB], the Kd in assay [2] and in assay [4] was > 30 µM (inactive) throughout.
With `COc1cc(CCc2cc(NC(=O)c3ccc(N4C[C@@H](C)N[C@@H](C)C4)cc3)n[nH]2)cc(OC)c1` [AZD-4547], the Kd in assay [1], in assay [6], in assay [2], in assay [7], in assay [3] and in assay [5] was > 30 µM (inactive) in each case.
For the compound `Cc1c(F)cc(C(=O)NC2CC2)cc1-c1ccc(C(=O)NCC(C)(C)C)cn1` [LOSMAPIMOD], the Kd in assay [1], in assay [6], in assay [7], in assay [3], in assay [4] and in assay [5] was > 30 µM (inactive) each time.
Consider `Nc1nc(N)c2nc(-c3cccc(O)c3)c(-c3cccc(O)c3)nc2n1` [TG100-115], for which the Kd in assay [6], in assay [2] and in assay [3] was > 30 µM (inactive) in each case.
Regarding `CN1CCN(c2ccc3nc(-c4c(N)c5c(F)cccc5[nH]c4=O)[nH]c3c2)CC1` [DOVITINIB], the figures for the Kd in assay [2] and in assay [3] were > 30 µM (inactive) and 17.4 µM (active), respectively.
Take `Cc1cc(Nc2cc(N3CCN(C)CC3)nc(/C=C/c3ccccc3)n2)n[nH]1` [ENMD-2076]: the Kd in assay [2], in assay [7], in assay [3], in assay [4] and in assay [5] was > 30 µM (inactive) throughout.
As for `Cc1nc(N)sc1-c1ccnc(Nc2ccc(N3CCOCC3)cc2)n1` [CYC-116], the figures for the Kd in assay [2], in assay [3] and in assay [4] were > 30 µM (inactive), 8.09 µM (active) and > 30 µM (inactive), respectively.
Regarding `C[C@@H](c1ccc2nccn2c1)n1nnc2ncc(-c3cnn(C)c3)nc21` [SAVOLITINIB], the Kd in assay [1], in assay [6], in assay [7], in assay [3], in assay [4] and in assay [5] was > 30 µM (inactive) in each case.
`CCn1c(-c2nonc2N)nc2c(C#CC(C)(C)O)ncc(OC[C@H]3CCCNC3)c21` [GSK-690693]: the Kd in assay [2], in assay [3] and in assay [4] was > 30 µM (inactive) in each case.
Consider `CCc1cnn2c(NCc3ccc[n+]([O-])c3)cc(N3CCCC[C@H]3CCO)nc12` [DINACICLIB], for which the Kd in assay [1], in assay [2], in assay [3], in assay [4] and in assay [5] was > 30 µM (inactive) throughout.
For `COc1cc2nccc(Oc3ccc(NC(=O)Nc4cc(C)on4)c(Cl)c3)c2cc1OC` [TIVOZANIB], the Kd was > 30 µM (inactive) in assay [1]; > 30 µM (inactive) in assay [2]; > 30 µM (inactive) in assay [7]; 0.16 µM (active) in assay [3]; > 30 µM (inactive) in assay [4]; > 30 µM (inactive) in assay [5].
Consider `COc1cc(OC)c(/C=C/S(=O)(=O)Cc2ccc(OC)c(NCC(=O)O)c2)c(OC)c1` [RIGOSERTIB], for which the Kd in assay [1], in assay [6], in assay [2], in assay [7], in assay [3] and in assay [5] was > 30 µM (inactive) each time.
`OCCn1cc(-c2cnc3nnn(Cc4ccc5ncccc5c4)c3n2)cn1` [PF-04217903]: the Kd in assay [1], in assay [2], in assay [3], in assay [4] and in assay [5] was > 30 µM (inactive) each time.
For `Cn1ncc(Cl)c1-c1cc(C(=O)N[C@H](CN)Cc2cccc(F)c2)sc1Cl` [AFURESERTIB], the Kd in assay [1], in assay [6], in assay [7], in assay [4] and in assay [5] was > 30 µM (inactive) throughout.
On to `CC[C@H](Nc1ncnc2[nH]cnc12)c1nc2cccc(F)c2c(=O)n1-c1ccccc1` [IDELALISIB], for which the Kd in assay [1], in assay [6], in assay [7], in assay [3], in assay [4] and in assay [5] was > 30 µM (inactive) in each case.
As for `COC(=O)[C@@]1(O)C[C@H]2O[C@]1(C)n1c3ccccc3c3c4c(c5c6ccccc6n2c5c31)C(=O)NC4` [K-252A], the Kd in assay [1] is 3.26 µM (active); in assay [6], > 30 µM (inactive); in assay [2] it was > 30 µM (inactive); in assay [7], 1.57 µM (active); in assay [3] it was > 30 µM (inactive); in assay [4], > 30 µM (inactive).

The term Kd denotes the constant that tells how readily two partners part at equilibrium.
